Values joined by “and” are separate entries in the source; they are usually repeats but may differ in a detail not shown here. Equal entries are not always repeated. Where two headings read alike, the source gives them in different places.
Columns and labels:
[1] = target: BuChE obtained from equine serum (EqBuChE) (Equus caballus, UniProt P81908); test: biochemical; format: biochemical; details: for IC50: mean ± SD, n = three independent experiments, BTCh 40 µM; for fold less active against BuChE than 2d: compared with 2-chlorobenzylidene analogue 2d
Sequence of BuChE obtained from equine serum (EqBuChE) (P81908 whole entry): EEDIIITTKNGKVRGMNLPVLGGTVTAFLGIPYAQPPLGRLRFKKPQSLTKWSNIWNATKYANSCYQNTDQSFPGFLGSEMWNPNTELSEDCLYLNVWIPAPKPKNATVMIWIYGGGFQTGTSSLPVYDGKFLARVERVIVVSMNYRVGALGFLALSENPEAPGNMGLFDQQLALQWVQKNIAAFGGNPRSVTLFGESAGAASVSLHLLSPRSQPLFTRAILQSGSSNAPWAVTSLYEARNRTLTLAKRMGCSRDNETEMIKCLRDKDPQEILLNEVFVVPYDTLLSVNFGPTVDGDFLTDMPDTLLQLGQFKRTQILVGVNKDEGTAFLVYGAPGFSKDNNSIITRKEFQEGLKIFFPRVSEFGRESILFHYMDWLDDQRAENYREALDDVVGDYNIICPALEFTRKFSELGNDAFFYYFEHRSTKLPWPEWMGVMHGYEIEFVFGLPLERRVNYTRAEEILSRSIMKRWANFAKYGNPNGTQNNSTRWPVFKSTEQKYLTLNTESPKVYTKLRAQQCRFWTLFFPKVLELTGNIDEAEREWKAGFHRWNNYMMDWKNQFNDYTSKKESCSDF

[2] = target: AChE isolated from electric eel (EeAChE) (Electrophorus electricus, UniProt O42275); test: biochemical; details: for Selectivity BuChE/AChE: SI = ratio of IC50 for BuChE/IC50 for AChE, >1 means stronger inhibition of AChE; for IC50: mean ± SD, n = three independent experiments, ATCh 40 µM
Sequence of AChE isolated from electric eel (EeAChE) (O42275 24-633): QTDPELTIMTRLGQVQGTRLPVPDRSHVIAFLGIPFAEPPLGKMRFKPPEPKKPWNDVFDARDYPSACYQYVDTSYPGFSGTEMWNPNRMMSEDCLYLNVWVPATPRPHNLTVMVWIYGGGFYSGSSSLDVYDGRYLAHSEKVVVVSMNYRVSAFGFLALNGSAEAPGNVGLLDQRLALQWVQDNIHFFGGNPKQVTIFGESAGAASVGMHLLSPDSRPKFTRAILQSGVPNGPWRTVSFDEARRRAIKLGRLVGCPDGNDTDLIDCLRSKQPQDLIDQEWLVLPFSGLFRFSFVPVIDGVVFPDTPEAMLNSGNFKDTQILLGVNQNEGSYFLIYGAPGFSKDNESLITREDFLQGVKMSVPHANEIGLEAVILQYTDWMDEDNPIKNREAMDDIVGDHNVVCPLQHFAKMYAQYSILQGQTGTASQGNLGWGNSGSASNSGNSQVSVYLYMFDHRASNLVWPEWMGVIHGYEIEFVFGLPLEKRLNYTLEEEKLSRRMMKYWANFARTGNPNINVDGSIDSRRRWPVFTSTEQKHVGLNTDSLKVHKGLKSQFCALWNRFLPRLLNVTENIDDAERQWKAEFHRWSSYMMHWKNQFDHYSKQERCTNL

[3] = system: HepG2 cells; details: cited from earlier work
[4] = target: eeAChE (Electrophorus electricus, UniProt O42275); test: Type of inhibition, Lineweaver–Burk plot and nonlinear regression; format: biochemical
Sequence of eeAChE (O42275 24-633): as above
Method: The type of inhibition could be distinguished using a Lineweaver–Burk plot and corresponding comparison of two kinetic parameters: Michaelis constant (KM) and maximum velocity (Vm) of uninhibited and inhibited reaction. […].
. The dependence absorbance vs. time was observed and the reaction rate was calculated. All measurements were carried out in duplicate and the average values of reaction rate were used for the construction of the Lineweaver–Burk plot. Furthermore, the dependencies vs. concentration of ATCh in absence and presence of inhibitor 2l were analyzed by nonlinear regression using GraphPad Prism 9.0.1 for Windows (GraphPad Software, San Diego, CA, USA, www.graphpad.com). From obtained equations of regression curves in the Lineweaver–Burk plot, the values of Michaelis constant (KM) and maximum velocity (Vm) were calculated. […]. Based on all obtained results, the type of inhibition was identified.

[5] = nonlinear regression, mixed model inhibition

Compound | IC50 ([1]; read-out: IC50 BuChE) | Selectivity BuChE/AChE [2] | IC50 [2] [µM] | IC50 [3] [µM] | IC50 ([1]; IC50 BuChE) [µM] | fold less active against BuChE than 2d [1] | improved activity against BuChE ([1]; fold, 2k vs. 2o) [×] | Type of inhibition ([4]; Lineweaver–Burk plot, KM and Vm, ATCh 20–80 µM, inhibitor 10–40 µM) | Ki [4, 5] [µM] | alpha [4, 5]
O=C(NN=Cc1cccc(C(F)(F)F)c1)c1ccc(C(F)(F)F)cc1 [2p, 4-(Trifluoromethyl)-N’-[3-(trifluoromethyl)benzylidene]benzohydrazide] | 63.6 ± 2.8 µM | 1.3 | 49.9 ± 1.4 | – | – | – | – | – | – | –
NNC(=O)c1ccc(C(F)(F)F)cc1 [compound 1, 4-(Trifluoromethyl)benzohydrazide] | – | – | – | > 100 | – | – | – | – | – | –
Cc1ccc(C(=O)NN=Cc2ccc(C(F)(F)F)cc2)cc1 [2u, 4-Methyl-N’-[4-(trifluoromethyl)benzylidene]benzohydrazide] | 245 ± 7 µM | 3.3 | 75.3 ± 1.5 | – | – | – | – | – | – | –
O=C(N/N=C/c1cccc(O)c1)c1ccc(C(F)(F)F)cc1 [2f] | 250 ± 7.5 µM | 3.5 | 70.4 ± 2.8 | > 100 | – | – | – | – | – | –
CC(C)=NNC(=O)c1ccc(C(F)(F)F)cc1 [3a] | 424 µM | 6.1 | 69.7 ± 5.2 | > 100 | – | – | – | – | – | –
O=C(NN=C1CCCC1)c1ccc(C(F)(F)F)cc1 [3b] | 200 ± 13.2 µM | 2.9 | 69.2 ± 1 | > 100 | – | – | – | – | – | –
O=C(N/N=C/c1cc(Cl)ccc1O)c1ccc(C(F)(F)F)cc1 [2h] | 287 ± 12.6 µM | 2.1 | 138 ± 3 | > 100 | – | – | – | – | – | –
O=C(NN=Cc1ccccc1[N+](=O)[O-])c1ccc(C(F)(F)F)cc1 [2s, N’-(2-Nitrobenzylidene)-4-(trifluoromethyl)benzohydrazide] | 93.1 ± 4.9 µM | 1.6 | 59.7 ± 5.8 | – | – | – | – | – | – | –
O=C(NN=C1CCCCC1)c1ccc(C(F)(F)F)cc1 [3c] | 74.7 ± 2.7 µM | 1.2 | 61.2 ± 1.3 | > 100 | – | – | – | – | – | –
Cc1ccc(/C=N/NC(=O)c2ccc(C(F)(F)F)cc2)cc1 [2i] | 253 ± 9.6 µM | 2.8 | 91.4 ± 6.2 | > 100 | – | – | – | – | – | –
O=C(N/N=C/c1ccc([N+](=O)[O-])cc1)c1ccc(C(F)(F)F)cc1 [2m] | 190.6 ± 1.1 µM | 3.2 | 60 ± 0.4 | > 100 | – | – | – | – | – | –
O=C(NN=Cc1cccc([N+](=O)[O-])c1)c1ccc(C(F)(F)F)cc1 [2r, N’-(3-Nitrobenzylidene)-4-(trifluoromethyl)benzohydrazide] | 133 ± 10.2 µM | 1.6 | 81.3 ± 2.6 | – | – | – | – | – | – | –
O=C(N/N=C/c1ccccc1Cl)c1ccc(C(F)(F)F)cc1 [2d] | – | 0.5 | 128 ± 10 | > 100 | 63.6 ± 0.9 | – | – | – | – | –
O=C(N/N=C/c1ccc(Cl)cc1)c1ccc(C(F)(F)F)cc1 [2b] | 254 ± 3.3 µM | 2.9 | 88.5 ± 1.4 | > 100 | – | – | – | – | – | –
O=C(N/N=C/c1cccc(Cl)c1)c1ccc(C(F)(F)F)cc1 [2c] | 261 ± 40.7 µM | 3.4 | 77.1 ± 0.03 | > 100 | – | – | – | – | – | –
COc1ccc(/C=N/NC(=O)c2ccc(C(F)(F)F)cc2)cc1 [2j] | 279 ± 2.9 µM | 2.6 | 109 ± 2.2 | > 100 | – | – | – | – | – | –
O=C(N/N=C/c1ccc(Br)cc1)c1ccc(C(F)(F)F)cc1 [2k] | 342 ± 11.3 µM | 5.5 | 62.1 ± 0.02 | > 100 | – | approximately 3 fold | – | – | – | –
O=C(NN=Cc1cccc(Br)c1)c1ccc(C(F)(F)F)cc1 [2n, N’-(3-Bromobenzylidene)-4-(trifluoromethyl)benzohydrazide] | 166.3 ± 0.8 µM | 1.7 | 96.9 ± 1.3 | – | – | – | – | – | – | –
O=C(NN=Cc1ccccc1Br)c1ccc(C(F)(F)F)cc1 [2o, N’-(2-Bromobenzylidene)-4-(trifluoromethyl)benzohydrazide] | 54.2 ± 0.1 µM | 0.9 | 62.6 ± 3.2 | – | – | – | 6.3 | – | – | –
CC12CCC(CC1=NNC(=O)c1ccc(C(F)(F)F)cc1)C2(C)C (centres unmarked) [3d] | 57 µM and 57.2 µM | 1.0 | 59.3 ± 1.8 | > 100 | – | – | – | – | – | –
O=C(N/N=C/c1ccc(O)cc1)c1ccc(C(F)(F)F)cc1 [2e] | 229 ± 14.5 µM | 2.3 | 102 ± 3.8 | > 100 | – | – | – | – | – | –
O=C(NN=Cc1ccccc1C(F)(F)F)c1ccc(C(F)(F)F)cc1 [2q, 4-(Trifluoromethyl)-N’-[2-(trifluoromethyl)benzylidene]benzohydrazide] | 19.1 ± 0.5 µM | 0.4 | 50 ± 1.6 | – | – | – | – | – | – | –
O=C(N/N=C/c1ccccc1)c1ccc(C(F)(F)F)cc1 [2a] | 651 ± 31.5 µM | – | 75.9 ± 1.6 | > 100 | – | – | – | – | – | –
O=C(NN=Cc1ccc(C(F)(F)F)cc1)c1ccccc1 [2t, N’-[4-(Trifluoromethyl)benzylidene]benzohydrazide] | 189.8 ± 1.7 µM | 3.0 | 62.9 ± 0.8 | – | – | – | – | – | – | –
O=C(N/N=C/c1ccccc1O)c1ccc(C(F)(F)F)cc1 [2g] | 881.1 ± 8 µM | 18.6 | 47.4 ± 1.8 | > 100 | – | – | – | – | – | –
O=C(NN=Cc1ccc(C(F)(F)F)cc1)c1ccc(C(F)(F)F)cc1 [2l, 4-(Trifluoromethyl)-N’-[4-(trifluoromethyl)benzylidene]benzohydrazide] | 175 ± 8.3 µM | 3.7 | 46.8 ± 2.1 | > 100 | – | approximately 3 fold | – | mixed type of inhibition | 54.6 | 1.28

Source: publication PMC7918878 (Molecules, 2021)
